Patent publication US20210054323A1, “INNERVATED INTESTINE ON CHIP” (EMULATE, Inc., priority 2018, published 2021)

Experiments:
[1] = system: human iPS-derived sensory neurons (Nociceptors); assay: Substance P release into apical channel effluent of Nociceptors-Chip; format: cell-based
Protocol: Chemical stimulation of Nociceptors with Capsaicin (e.g. 1 μM), perfused for 3 hours, was followed by effluent collected from the apical channel (neuronal). This Capsaicin treatment elicited the release of substance P, a pain neurotransmitter. […] This model was further developed, as described herein, successfully simulating the process of sensitization that leads to pathological pain by the addition of inflammatory mediators to endothelial media perfused through the vascular channel. As one example, 5 μM each of Prostaglandin E2, bradykinin, serotonin and histamine in Vascular Cell Basal Medium (ATCC® PCS-100-030™) with Microvascular Endothelial Cell Growth Kit-VEGF (ATCC® PCS-110-041™) was perfused through the vascular channel. In other words, this model is intended to simulate peripheral sensitization of Nociceptors. Capsaicin (200 nM) and inflammatory mediators (each 5 μM) were perfused for 3 hours, and the effluents were collected from the apical channel (neuronal). See, FIG. 30A for an exemplary schematic diagram. […] At the same time, inflammatory mediators, i.e. Prostaglandin E2, bradykinin, serotonin and histamine (each 5 μM in media), were added to the inlet of the basal channel. The effluent was collected from the outlet of the apical channel after 3 hours (t=3 h).

[2] = system: human iPS-derived sensory neurons (Nociceptors); assay: Live calcium imaging (Fluo-4 AM) of Nociceptors on-chip after capsaicin irritation; format: cell-based; conditions: capsaicin 1 μM, sensory neurons in apical channel
Protocol: Irritation (as pain simulation) to sensory neurons on-chip was induced by capsaicin (1 μM in DMEM/F12 with 10% FBS, supplemented with BDNF, GDNF, NGF, NT-3 (25 ng/ml each) and Ascorbic Acid (200 μM)) in order to recapitulate the sensation of burning (heat) felt by humans exposed to capsaicin. Nociceptors responded to capsaicin, as shown by live imaging of calcium using Fluo-4 AM, see FIGS. 28C and 28D. Fluo-4 AM refers to a calcium sensitive fluorescent dye, loaded onto the sensory neurons. Intracellular calcium fluctuations were monitored over time using high-speed imaging. Acquisition protocols, for the example shown herein, consisted of 5-minute time-lapse sequences of Fluo-4 fluorescence. Alterations in fluorescence as a function of time were measured at a single wavelength (Fluo-4). Analysis and processing, as well as playback of the image sequences for visual inspection, was made using ImageJ/FIJI software. To visualize the spatial and temporal changes in, the raw sequences were processed to highlight changes in fluorescence intensity between frames. Regions of interest over the field of view were selected, and the mean pixel intensity at each frame was measured. The data was first plotted as fluorescence intensity versus and subsequently converted to a relative scale (ΔF/F baseline)

[3] = system: Human Dermal Microvascular Endothelial Cells (HMVEC-D); assay: Vascular permeability, 3 kDa Dextran leakage from basal into apical channel of Nociceptors-Chip; format: cell-based; conditions: capsaicin 200 nM apical, simultaneously with inflammatory mediators (each 5 μM) basal, 3 hours
Protocol: In one embodiment, endothelial cells were seeded into the basal channel, e.g. Human Dermal Microvascular Endothelial Cells (HMVEC-D), i.e. Primary Dermal Microvascular Endothelial Cells; Normal, Human, Neonatal (HDMVECn) (e.g. ATCC® PCS-110-010™). However, it is not meant to limit the source of HMVEC, such that Primary Dermal Microvascular Endothelial Cells may be obtained from neonatal biopsies, e.g. foreskins. Prior to seeding, basal channels were coated with a thin rat collagen coating. Rat collagen was diluted in distillated water to obtain a final protein concentration at 150 μg/mL−1. The basal channel was coated by incubating the channel in collagen solution at 4° C. overnight. Unattached rat collagen was washed away with PBS, then culture medium was flowed in to cover the coated membrane to replace the PBS.
This model was further developed, as described herein, successfully simulating the process of sensitization that leads to pathological pain by the addition of inflammatory mediators to endothelial media perfused through the vascular channel. […]
Another readout is obtained by using Dextran (3 kDa) permeability, where Dextran is added to the basal channel then after 24 hours, effluent from the apical channel was collected for measuring the amount of Dextran that diffused through the endothelial barrier into the neuronal channel. […]

[4] = system: endothelial cells; assay: Real-time TEER measurement in BBB-chip; format: cell-based; conditions: BBB-chip under flow, after TNF-a challenge
From the text: TEER measures the resistance to pass current across one or more cell layers on a membrane. Specifically, this electrical resistance is a direct measurement of the resistance of the cell monolayer to the transport of ions. The measurement may be affected by the pore size and density of the membrane, but it aims to ascertain cell and/or tissue properties. The TEER value is considered a good measure of the integrity of a cell monolayer.
The barrier function of the same BBB-chip measured by flowing a fluorescent molecule on one side of the chip and measuring how much of the molecules crosses the endothelial cells, FIG. 23B (middle). The resolution of this measurement is limited by the time it takes for a sufficient sample to flow through the chip. A model of an exemplary TEER-Chip design FIG. 23C (right) utilizing electrodes oriented in a manner that allows electrical resistance of the cells on the membrane to be measured in real-time.

[5] = system: iPSC-derived human brain microvascular endothelial cells; assay: Inflamed Brain-Chip: endothelial morphology (ZO-1) and Dextran leakage after TNF-α in vascular channel; format: cell-based
Protocol: In one embodiment to provide an innervated human brain chip having intact barrier function, induced pluripotent stem cells (iPSC)-derived cortical neurons, including populations of Glutamatergic neurons and GABAergic neurons, human primary astrocytes, and human primary pericytes were seeded into the neuronal channel (upper chamber), and iPSC-derived human brain microvascular endothelial cells in the vascular channel (lower chamber).
The vascular channel was directly stimulated the vascular channel at two concentrations of TNF-α.

[6] = system: astrocytes; assay: Brain-Chip GFAP expression after TNF-α perfused into neuronal channel; format: cell-based, human; conditions: TNF-α 100 ng/ml perfused into neuronal channel; up to 24 hours after stimulation
Protocol: TNF-α (100 ng/ml) or vehicle was perfused into the neuronal channel.

Molecule: COc1cc(CNC(=O)CCCC/C=C/C(C)C)ccc1O [capsaicin, trans-8-methyl-N-vanillyl-6-nonenamide]
- Substance P released in the apical channel effluent ([1]; capsaicin 200 nM apical, with inflammatory mediators (Prostaglandin E2, bradykinin, serotonin, histamine, each 5 μM) basal, 3 hours): significant increase
- Substance P released in the apical channel effluent ([1]; capsaicin 1 μM perfused through apical channel for 3 hours): significant increase
- Nociceptor response by live imaging of calcium, change in fluorescence (ΔF/F) [2]: responded
- Vascular permeability (leakage of 3 kDa Dextran into the apical channel) [3]: significant increase

Molecule: TNF-α
- Barrier function by real-time TEER [4]: abrupt drop
- Percent leakage of Dextran into the apical channel (paracellular permeability) vs control ([5]; TNF-α 100 ng/ml and 1 ug/ml in vascular channel, 16 hours): significantly higher
- Endothelial cell morphology (ZO-1 expression) ([5]; TNF-α in vascular channel for 16 hours, 100 ng/ml and 1 ug/ml): induces changes
- GFAP expression (optical intensity of GFAP staining) [6]: significantly increases
